Assay results as given in ChEMBL document CHEMBL3769377, “A synthesis, in silico, in vitro and in vivo study of thieno[2,3-b]pyridine anticancer analogues” (Medchemcomm, 2015).

How the values were obtained:
[1] = target: Cyclin-dependent kinase 11B (Homo sapiens) (UniProt P21127); assay: Inhibition of human recombinant CDK11 assessed as residual activity at 10 uM after 1 hr by qPCR analysis relative to control
[2] = target: RAC-beta serine/threonine-protein kinase (Homo sapiens) (UniProt P31751); assay: Inhibition of human recombinant AKT2 assessed as residual activity at 10 uM after 1 hr by qPCR analysis relative to control
Sequence of RAC-beta serine/threonine-protein kinase (Homo sapiens) (P31751 whole entry): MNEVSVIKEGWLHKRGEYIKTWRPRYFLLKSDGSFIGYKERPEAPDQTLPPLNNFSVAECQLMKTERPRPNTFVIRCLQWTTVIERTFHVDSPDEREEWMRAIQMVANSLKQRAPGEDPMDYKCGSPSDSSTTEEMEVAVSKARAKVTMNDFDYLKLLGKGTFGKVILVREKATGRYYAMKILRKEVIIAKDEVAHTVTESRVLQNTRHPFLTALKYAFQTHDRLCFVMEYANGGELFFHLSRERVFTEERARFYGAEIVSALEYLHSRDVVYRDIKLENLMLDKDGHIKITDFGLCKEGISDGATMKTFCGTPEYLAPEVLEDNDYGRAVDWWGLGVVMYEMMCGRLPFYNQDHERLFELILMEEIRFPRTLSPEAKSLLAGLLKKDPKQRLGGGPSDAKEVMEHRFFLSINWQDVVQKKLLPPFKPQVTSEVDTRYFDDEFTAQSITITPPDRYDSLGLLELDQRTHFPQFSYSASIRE

[3] = target: Mast/stem cell growth factor receptor Kit (Homo sapiens) (UniProt P10721); assay: Inhibition of human recombinant KIT assessed as residual activity at 10 uM after 1 hr by qPCR analysis relative to control
Sequence of Mast/stem cell growth factor receptor Kit (Homo sapiens) (P10721 whole entry): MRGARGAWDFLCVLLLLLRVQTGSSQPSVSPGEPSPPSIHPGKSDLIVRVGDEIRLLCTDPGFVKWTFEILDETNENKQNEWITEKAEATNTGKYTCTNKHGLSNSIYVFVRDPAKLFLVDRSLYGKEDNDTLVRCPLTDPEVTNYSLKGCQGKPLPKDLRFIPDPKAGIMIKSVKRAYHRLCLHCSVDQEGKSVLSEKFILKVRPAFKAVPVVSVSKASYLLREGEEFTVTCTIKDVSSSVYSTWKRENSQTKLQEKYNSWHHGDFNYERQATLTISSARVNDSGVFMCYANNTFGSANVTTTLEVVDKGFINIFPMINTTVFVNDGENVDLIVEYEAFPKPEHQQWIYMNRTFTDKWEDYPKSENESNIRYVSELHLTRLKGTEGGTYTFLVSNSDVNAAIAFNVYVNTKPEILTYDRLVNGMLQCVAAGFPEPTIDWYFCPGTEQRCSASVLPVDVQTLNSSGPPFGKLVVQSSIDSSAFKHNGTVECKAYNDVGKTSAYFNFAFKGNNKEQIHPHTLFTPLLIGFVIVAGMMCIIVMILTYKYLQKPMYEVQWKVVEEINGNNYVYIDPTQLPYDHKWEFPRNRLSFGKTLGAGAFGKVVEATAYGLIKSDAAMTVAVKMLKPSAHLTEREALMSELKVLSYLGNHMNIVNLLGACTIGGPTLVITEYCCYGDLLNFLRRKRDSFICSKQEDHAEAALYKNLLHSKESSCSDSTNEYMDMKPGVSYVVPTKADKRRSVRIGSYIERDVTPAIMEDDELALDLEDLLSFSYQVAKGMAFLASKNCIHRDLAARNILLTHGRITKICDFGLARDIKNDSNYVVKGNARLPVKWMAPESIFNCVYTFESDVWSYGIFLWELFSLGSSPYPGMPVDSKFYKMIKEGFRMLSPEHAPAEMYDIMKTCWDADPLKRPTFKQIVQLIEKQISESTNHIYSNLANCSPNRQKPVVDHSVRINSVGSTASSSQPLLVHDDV

[4] = target: Vascular endothelial growth factor receptor 2 (Homo sapiens) (UniProt P35968); assay: Inhibition of human recombinant VEGFR2 assessed as residual activity at 10 uM after 1 hr by qPCR analysis relative to control
[5] = test system: Tyrosine-protein kinase ABL1 (Homo sapiens), P00519 [T315I]; assay: Inhibition of human recombinant phosphorylated ABL1 T315I mutant assessed as residual activity at 10 uM after 1 hr by qPCR analysis relative to control
[6] = target: Platelet-derived growth factor receptor beta (Homo sapiens) (UniProt P09619); assay: Inhibition of human recombinant PDGFRB assessed as residual activity at 10 uM after 1 hr by qPCR analysis relative to control
[7] = target: Ephrin type-A receptor 2 (Homo sapiens) (UniProt P29317); assay: Inhibition of human recombinant EPHA2 assessed as residual activity at 10 uM after 1 hr by qPCR analysis relative to control
[8] = target: Tyrosine-protein kinase BTK (Homo sapiens) (UniProt Q06187); assay: Inhibition of human recombinant BTK assessed as residual activity at 10 uM after 1 hr by qPCR analysis relative to control
[9] = target: Receptor-type tyrosine-protein kinase FLT3 (Homo sapiens) (UniProt P36888); assay: Inhibition of human recombinant FLT3 assessed as residual activity at 10 uM after 1 hr by qPCR analysis relative to control
[10] = target: Serine/threonine-protein kinase PLK4 (Homo sapiens) (UniProt O00444); assay: Inhibition of human recombinant PLK4 assessed as residual activity at 10 uM after 1 hr by qPCR analysis relative to control
[11] = target: Aurora kinase B (Homo sapiens) (UniProt Q96GD4); assay: Inhibition of human recombinant AURKB assessed as residual activity at 10 uM after 1 hr by qPCR analysis relative to control
Mus musculus = assay: Toxicity in athymic nude/beige mouse xenografted with human 786-O cells assessed as signs of facial hirsutism at 0.16 mg/kg, ip qd after 24 days; format: organism-based, 786-0; settings: in vivo, 576 h
[12] = target: Inhibitor of nuclear factor kappa-B kinase subunit beta (Homo sapiens) (UniProt O14920); assay: Inhibition of human recombinant IKKbeta assessed as residual activity at 10 uM after 1 hr by qPCR analysis relative to control
[13] = target: Tyrosine-protein kinase JAK2 (Homo sapiens) (UniProt O60674); assay: Inhibition of human recombinant JAK2 (JH1 domain-catalytic) assessed as residual activity at 10 uM after 1 hr by qPCR analysis relative to control
[14] = test system: Mast/stem cell growth factor receptor Kit (Homo sapiens), P10721 [V559D,T670I]; assay: Inhibition of human recombinant KIT V559D/T670I double mutant assessed as residual activity at 10 uM after 1 hr by qPCR analysis relative to control
Sequence of Mast/stem cell growth factor receptor Kit (Homo sapiens), P10721 [V559D,T670I] (P10721 whole entry V559D/T670I): as the sequence (P10721 whole entry) above, with V559D, T670I counted along it

[15] = target: Bone morphogenetic protein receptor type-2 (Homo sapiens) (UniProt Q13873); assay: Inhibition of human recombinant BMPR2 assessed as residual activity at 10 uM after 1 hr by qPCR analysis relative to control
[16] = target: Tyrosyl-DNA phosphodiesterase 1 (Homo sapiens, UniProt Q9NUW8); assay: Inhibition of recombinant human N-terminal His-tagged TDP1 (1824 bp) expressed in Escherichia coli BL21(DE3) cells using 5'-(5,6 FAM-AAC GTC AGG GTC TTC C-BHQ1)-3' as substrate measured every 1 min by RT-PCR method
[17] = target: Serine/threonine-protein kinase PLK3 (Homo sapiens) (UniProt Q9H4B4); assay: Inhibition of human recombinant PLK3 assessed as residual activity at 10 uM after 1 hr by qPCR analysis relative to control
[18] = target: RAF proto-oncogene serine/threonine-protein kinase (Homo sapiens) (UniProt P04049); assay: Inhibition of human recombinant RAF1 assessed as residual activity at 10 uM after 1 hr by qPCR analysis relative to control
Sequence of RAF proto-oncogene serine/threonine-protein kinase (Homo sapiens) (P04049 whole entry): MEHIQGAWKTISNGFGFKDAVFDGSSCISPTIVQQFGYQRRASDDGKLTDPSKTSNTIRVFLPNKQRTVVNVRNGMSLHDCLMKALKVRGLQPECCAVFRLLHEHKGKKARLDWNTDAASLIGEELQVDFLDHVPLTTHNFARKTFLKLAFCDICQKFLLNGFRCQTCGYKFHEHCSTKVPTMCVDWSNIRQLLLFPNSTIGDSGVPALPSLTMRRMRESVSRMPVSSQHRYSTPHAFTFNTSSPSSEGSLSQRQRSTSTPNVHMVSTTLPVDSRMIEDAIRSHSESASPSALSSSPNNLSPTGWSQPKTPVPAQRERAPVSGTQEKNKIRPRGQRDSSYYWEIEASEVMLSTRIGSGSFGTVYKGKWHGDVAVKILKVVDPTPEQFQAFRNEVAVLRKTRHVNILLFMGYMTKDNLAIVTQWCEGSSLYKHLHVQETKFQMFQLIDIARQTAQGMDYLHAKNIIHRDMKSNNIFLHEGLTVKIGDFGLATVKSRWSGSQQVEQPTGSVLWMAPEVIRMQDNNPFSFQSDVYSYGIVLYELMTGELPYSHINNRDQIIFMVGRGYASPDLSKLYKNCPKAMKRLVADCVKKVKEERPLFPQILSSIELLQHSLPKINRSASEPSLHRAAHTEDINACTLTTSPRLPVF

[19] = target: NUAK family SNF1-like kinase 2 (Homo sapiens) (UniProt Q9H093); assay: Inhibition of human recombinant SNARK assessed as residual activity at 10 uM after 1 hr by qPCR analysis relative to control
Sequence of NUAK family SNF1-like kinase 2 (Homo sapiens) (Q9H093 whole entry, the tested form may be a part): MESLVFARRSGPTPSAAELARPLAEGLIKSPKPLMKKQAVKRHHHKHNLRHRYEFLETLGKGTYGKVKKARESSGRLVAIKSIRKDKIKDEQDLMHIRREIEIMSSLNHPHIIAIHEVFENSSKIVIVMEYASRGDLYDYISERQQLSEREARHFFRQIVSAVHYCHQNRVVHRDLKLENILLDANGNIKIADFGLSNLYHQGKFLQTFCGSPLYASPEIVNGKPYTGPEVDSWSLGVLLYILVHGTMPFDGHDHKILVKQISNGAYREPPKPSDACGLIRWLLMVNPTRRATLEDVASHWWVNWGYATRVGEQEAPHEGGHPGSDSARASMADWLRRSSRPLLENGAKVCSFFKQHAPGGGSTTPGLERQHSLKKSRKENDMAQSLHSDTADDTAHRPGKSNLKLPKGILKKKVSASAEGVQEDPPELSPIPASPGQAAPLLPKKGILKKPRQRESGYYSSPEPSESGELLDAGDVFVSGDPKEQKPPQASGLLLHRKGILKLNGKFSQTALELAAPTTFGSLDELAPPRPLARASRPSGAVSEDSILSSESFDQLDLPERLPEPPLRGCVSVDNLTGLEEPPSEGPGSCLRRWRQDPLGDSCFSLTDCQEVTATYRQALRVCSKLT

[20] = target: Ribosomal protein S6 kinase alpha-3 (Homo sapiens) (UniProt P51812); assay: Inhibition of human recombinant N-terminal RSK2 kinase domain 1 assessed as residual activity at 10 uM after 1 hr by qPCR analysis relative to control
[21] = test system: Tyrosine-protein kinase ABL1 (Homo sapiens), P00519 [E255K]; assay: Inhibition of human recombinant phosphorylated ABL1 E255K mutant assessed as residual activity at 10 uM after 1 hr by qPCR analysis relative to control
[22] = target: RAC-alpha serine/threonine-protein kinase (Homo sapiens) (UniProt P31749); assay: Inhibition of human recombinant AKT1 assessed as residual activity at 10 uM after 1 hr by qPCR analysis relative to control
Sequence of RAC-alpha serine/threonine-protein kinase (Homo sapiens) (P31749 whole entry): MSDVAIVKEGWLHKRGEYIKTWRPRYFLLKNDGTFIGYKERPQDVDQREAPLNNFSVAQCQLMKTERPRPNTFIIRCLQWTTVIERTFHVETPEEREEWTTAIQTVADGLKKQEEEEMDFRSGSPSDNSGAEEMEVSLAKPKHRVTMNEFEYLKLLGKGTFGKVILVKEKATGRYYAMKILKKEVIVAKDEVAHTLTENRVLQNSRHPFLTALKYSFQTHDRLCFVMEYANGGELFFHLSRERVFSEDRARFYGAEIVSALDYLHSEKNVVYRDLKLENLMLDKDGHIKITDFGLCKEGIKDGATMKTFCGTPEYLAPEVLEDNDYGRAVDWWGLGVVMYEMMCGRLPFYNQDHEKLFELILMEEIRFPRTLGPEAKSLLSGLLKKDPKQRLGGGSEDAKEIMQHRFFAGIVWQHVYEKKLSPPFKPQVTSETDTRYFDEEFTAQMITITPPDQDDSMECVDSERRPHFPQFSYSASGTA

[23] = target: Inhibitor of nuclear factor kappa-B kinase subunit alpha (Homo sapiens) (UniProt O15111); assay: Inhibition of human recombinant IKKalpha assessed as residual activity at 10 uM after 1 hr by qPCR analysis relative to control
Sequence of Inhibitor of nuclear factor kappa-B kinase subunit alpha (Homo sapiens) (O15111 whole entry): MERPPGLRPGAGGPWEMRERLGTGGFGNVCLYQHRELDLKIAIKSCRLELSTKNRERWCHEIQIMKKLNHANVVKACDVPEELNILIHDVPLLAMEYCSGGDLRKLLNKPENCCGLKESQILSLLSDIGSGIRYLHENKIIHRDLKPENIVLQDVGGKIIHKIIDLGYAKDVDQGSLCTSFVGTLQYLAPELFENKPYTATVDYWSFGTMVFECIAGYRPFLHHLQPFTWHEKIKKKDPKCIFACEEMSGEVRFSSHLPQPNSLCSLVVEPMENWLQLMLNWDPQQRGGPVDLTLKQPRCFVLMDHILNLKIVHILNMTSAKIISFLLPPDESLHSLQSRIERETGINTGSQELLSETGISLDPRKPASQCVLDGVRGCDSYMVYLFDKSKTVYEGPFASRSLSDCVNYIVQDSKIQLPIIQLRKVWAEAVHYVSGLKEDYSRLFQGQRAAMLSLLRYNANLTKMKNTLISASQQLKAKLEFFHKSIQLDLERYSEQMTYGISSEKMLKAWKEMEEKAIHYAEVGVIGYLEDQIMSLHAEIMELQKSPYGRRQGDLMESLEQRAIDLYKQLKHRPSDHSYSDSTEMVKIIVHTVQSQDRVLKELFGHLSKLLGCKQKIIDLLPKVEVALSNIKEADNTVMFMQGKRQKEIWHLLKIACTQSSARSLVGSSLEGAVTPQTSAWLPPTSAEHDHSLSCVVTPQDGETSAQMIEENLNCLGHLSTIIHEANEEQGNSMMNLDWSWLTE

[24] = target: MAP/microtubule affinity-regulating kinase 3 (Homo sapiens) (UniProt P27448); assay: Inhibition of human recombinant MARK3 assessed as residual activity at 10 uM after 1 hr by qPCR analysis relative to control
[25] = target: Serine/threonine-protein kinase Chk1 (Homo sapiens) (UniProt O14757); assay: Inhibition of human recombinant CHEK1 assessed as residual activity at 10 uM after 1 hr by qPCR analysis relative to control
Sequence of Serine/threonine-protein kinase Chk1 (Homo sapiens) (O14757 whole entry): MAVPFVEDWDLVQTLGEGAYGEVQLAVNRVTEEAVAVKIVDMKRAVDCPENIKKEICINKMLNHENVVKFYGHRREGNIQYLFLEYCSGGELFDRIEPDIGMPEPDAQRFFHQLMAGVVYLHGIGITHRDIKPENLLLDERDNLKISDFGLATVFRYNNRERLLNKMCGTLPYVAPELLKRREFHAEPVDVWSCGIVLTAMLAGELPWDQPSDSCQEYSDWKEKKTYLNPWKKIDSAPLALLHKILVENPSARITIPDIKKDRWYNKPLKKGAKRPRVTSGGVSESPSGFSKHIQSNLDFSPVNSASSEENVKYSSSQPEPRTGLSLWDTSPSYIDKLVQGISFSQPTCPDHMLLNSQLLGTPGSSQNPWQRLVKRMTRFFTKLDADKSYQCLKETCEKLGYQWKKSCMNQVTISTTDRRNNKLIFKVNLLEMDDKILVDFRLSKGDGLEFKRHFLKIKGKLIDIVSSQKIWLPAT

[26] = target: Mitogen-activated protein kinase 3 (Homo sapiens) (UniProt P27361); assay: Inhibition of human recombinant ERK1 assessed as residual activity at 10 uM after 1 hr by qPCR analysis relative to control
[27] = target: Serine/threonine-protein kinase ULK2 (Homo sapiens) (UniProt Q8IYT8); assay: Inhibition of human recombinant ULK2 assessed as residual activity at 10 uM after 1 hr by qPCR analysis relative to control
[28] = target: Serine/threonine-protein kinase STK11 (Homo sapiens) (UniProt Q15831); assay: Inhibition of human recombinant LKB1 assessed as residual activity at 10 uM after 1 hr by qPCR analysis relative to control
Sequence of Serine/threonine-protein kinase STK11 (Homo sapiens) (Q15831 whole entry): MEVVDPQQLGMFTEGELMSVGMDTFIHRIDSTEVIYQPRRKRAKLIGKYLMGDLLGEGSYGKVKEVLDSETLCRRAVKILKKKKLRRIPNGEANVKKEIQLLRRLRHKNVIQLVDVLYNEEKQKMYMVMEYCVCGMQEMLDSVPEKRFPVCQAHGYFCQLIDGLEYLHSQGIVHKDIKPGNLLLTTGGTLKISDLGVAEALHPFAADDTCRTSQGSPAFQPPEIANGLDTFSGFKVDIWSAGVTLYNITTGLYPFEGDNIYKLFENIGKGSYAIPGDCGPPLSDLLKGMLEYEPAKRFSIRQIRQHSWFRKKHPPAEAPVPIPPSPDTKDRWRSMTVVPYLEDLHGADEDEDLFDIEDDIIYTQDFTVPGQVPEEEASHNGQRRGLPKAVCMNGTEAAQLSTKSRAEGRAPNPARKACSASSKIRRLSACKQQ

In the case of `Cc1c(Cl)cccc1NC(=O)c1sc2nc3c(cc2c1N)C(=O)CC3`, the Activity [1] is reported as 100%, the Activity [2] is reported as 72% and the Activity [3] is reported as 95%. For the same molecule, the Activity [4] was 100%, the Activity [5] was 90% and the Activity [6] was 95%. It also gave an Activity [7] of 100%, an Activity [8] of 100% and an Activity [9] of 100%. The Activity [10] was 100%, the Activity [11] was 92% and the Activity (Mus musculus) was “Toxic”. For the same molecule, the Activity [12] was 100%, the Activity [13] was 94% and the Activity [14] was 99%. The Activity [15] was 96%, the IC50 [16] was 2200 nM and the Activity [17] was 100%. For the same molecule, the Activity [18] was 100%, the Activity [19] was 100% and the Activity [20] was 94%. For the same molecule, the Activity [21] was 100%, the Activity [22] was 90% and the Activity [23] was 100%. For the same molecule, the Activity [24] was 96%, the Activity [25] was 94% and the Activity [26] was 98%. It also gave an Activity [27] of 97% and an Activity [28] of 76%.
